# Values of other authors as cited in patent US10878939B2, “Methods and compositions for personalized pain management” (Children's Hospital Medical Center, priority 2014, dated 2020).
# Conditions: other reports; cited from earlier work
structure (smiles),measurement,value
"CN1CC[C@]23c4c5ccc(O[C@@H]6O[C@H](C(=O)O)[C@@H](O)[C@H](O)[C@H]6O)c4O[C@H]2[C@@H](O)C=C[C@H]3[C@H]1C5 [M3G, Morphine-3-Glucuronide]",M3G metabolite formation relative to M6G formation,7-10 fold
